According to PubChem BioAssay AID248 (DTP/NCI, 2004):
Toxic doses and inconclusive results are not listed. Rule as the data show it: active = T/C of 150% or more; inactive = T/C below 125%.

System: L1210 leukemia ip in BDF1 mice, survival T/C
Test: NCI In Vivo Anticancer Drug Screen. Data for tumor model L1210 Leukemia (intraperitoneal) in B6D2F1 (BDF1) mice
Conditions: endpoint: mean survival time, higher = longer survival
Method in brief: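 Mice bearing the transplanted tumor received compound or vehicle. Survival of the treated group was divided by that of the vehicle-treated control group to give the ratio.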

[1] = dose: 100.0 mg/kg/injection, schedule: Q04DX003 (ip), vehicle: Klucel (hydroxypropylcellulose) (HPC)
[2] = dose: 200.0 mg/kg/injection, schedule: Q04DX003 (ip), vehicle: Klucel (hydroxypropylcellulose) (HPC)
[3] = dose: 400.0 mg/kg/injection, schedule: Q04DX003 (ip), vehicle: Klucel (hydroxypropylcellulose) (HPC)
[4] = dose: 100.0 mg/kg/injection, schedule: Q01DX009 (ip), vehicle: Klucel (hydroxypropylcellulose) (HPC)
[5] = dose: 200.0 mg/kg/injection, schedule: Q01DX009 (ip), vehicle: Klucel (hydroxypropylcellulose) (HPC)
[6] = dose: 25.0 mg/kg/injection, schedule: Q04DX002 (ip), vehicle: Klucel (hydroxypropylcellulose) (HPC)
[7] = dose: 50.0 mg/kg/injection, schedule: Q04DX002 (ip), vehicle: Klucel (hydroxypropylcellulose) (HPC)
[8] = dose: 400.0 mg/kg/injection, schedule: Q01DX009 (ip), vehicle: Klucel (hydroxypropylcellulose) (HPC)
[9] = dose: 100.0 mg/kg/injection, schedule: Q04DX002 (ip), vehicle: Klucel (hydroxypropylcellulose) (HPC)
[10] = dose: 100.0 mg/kg/injection, schedule: Q04DX003 (ip), vehicle: saline with Tween-80
[11] = dose: 200.0 mg/kg/injection, schedule: Q04DX003 (ip), vehicle: saline with Tween-80
[12] = dose: 100.0 mg/kg/injection, schedule: Q01DX009 (ip), vehicle: saline sonified
[13] = dose: 400.0 mg/kg/injection, schedule: Q01DX009 (ip), vehicle: saline sonified
[14] = dose: 100.0 mg/kg/injection, schedule: Q01DX001 (ip), vehicle: carboxymethylcellulose (CMC)

Measured: T/C

O=[N+]([O-])c1cccc(S(=O)(=O)NNc2cccc(Cl)c2)c1
inactive: [1] 94 % of control | [2] 94 % of control | [3] 98 % of control

CCCCCCCCc1cc(Cl)c(O)c(Cl)c1
inactive: dose: 50.0 mg/kg/injection, schedule: Q01DX009 (ip), vehicle: Klucel (hydroxypropylcellulose) (HPC) 105 % of control | [4] 105 % of control | [5] 93 % of control

CC(O)CCc1ccccc1O (stereo not given)
inactive: dose: 100.0 mg/kg/injection, schedule: Q04DX002 (ip), vehicle: saline with Tween-80 98 % of control | dose: 200.0 mg/kg/injection, schedule: Q04DX002 (ip), vehicle: saline with Tween-80 91 % of control | dose: 400.0 mg/kg/injection, schedule: Q04DX002 (ip), vehicle: saline with Tween-80 98 % of control

CC1(C)N=C(N)N=C(N)N1c1ccc(CN)cc1
inactive: dose: 100.0 mg/kg/injection, schedule: Q04DX003 (ip), vehicle: saline 109 % of control | dose: 200.0 mg/kg/injection, schedule: Q04DX003 (ip), vehicle: saline 101 % of control

CC(=O)OC1CCC2(C)C(=CCC3C2CCC2(C)C3CC3C2C(c2ccccc2)=NN3c2ccccc2)C1 (stereo not given)
inactive: dose: 6.0 mg/kg/injection, schedule: Q04DX002 (ip), vehicle: Klucel (hydroxypropylcellulose) (HPC) 93 % of control | dose: 12.5 mg/kg/injection, schedule: Q04DX002 (ip), vehicle: Klucel (hydroxypropylcellulose) (HPC) 104 % of control | [6] 96 % of control | [7] 96 % of control

Cc1ncc(CS(=O)(=O)O)c(N)n1
inactive: [4] 92 % of control | [1] 97 % of control | [5] 100 % of control | [2] 98 % of control | [8] 98 % of control | [3] 97 % of control

COc1cc(Cn2cccc2/C=C(\C#N)C(N)=O)cc(OC)c1
inactive: [6] 94 % of control | [7] 97 % of control | [9] 105 % of control

N#CC12C(=O)C3C4C=CC(C4)C3C(=O)C1(C#N)C1C=CC2C1 (stereo not given)
inactive: [10] 94 % of control | [11] 92 % of control

CS(=O)(=O)OC[C@@H](O)[C@@H](O)COS(C)(=O)=O
inactive: [12] 101 % of control | dose: 200.0 mg/kg/injection, schedule: Q01DX009 (ip), vehicle: saline sonified 98 % of control | [13] 103 % of control

O=[N+]([O-])C(Cl)(CN1CCOCC1)CN1CCOCC1
inactive: dose: 11.1 mg/kg/injection, schedule: Q01DX Z (ip), vehicle: saline 113 % of control | dose: 16.6 mg/kg/injection, schedule: Q01DX Z (ip), vehicle: saline 91 % of control | dose: 25.0 mg/kg/injection, schedule: Q01DX Z (ip), vehicle: saline 95 % of control

O=C1COc2ccc(F)cc2N1
inactive: [9] 98 % of control | dose: 200.0 mg/kg/injection, schedule: Q04DX002 (ip), vehicle: Klucel (hydroxypropylcellulose) (HPC) 102 % of control | dose: 400.0 mg/kg/injection, schedule: Q04DX002 (ip), vehicle: Klucel (hydroxypropylcellulose) (HPC) 109 % of control

CCCCCCCCCCCCC(CC(=O)O)C(=O)N(C)CC(O)C(O)C(O)C(O)CO (stereo not given)
inactive: dose: 50.0 mg/kg/injection, schedule: Q01DX009 (ip), vehicle: saline 106 % of control | dose: 100.0 mg/kg/injection, schedule: Q01DX009 (ip), vehicle: saline 100 % of control | dose: 200.0 mg/kg/injection, schedule: Q01DX009 (ip), vehicle: saline 110 % of control

Nc1ncnc2cc(O)[nH]c12
inactive: dose: 50.0 mg/kg/injection, schedule: Q01DX001 (ip), vehicle: carboxymethylcellulose (CMC) 107 % of control | [14] 104 % of control

CCOC(=O)C(O)c1cccc(OC)c1 (stereo not given)
inactive: [12] 92 % of control | dose: 100.0 mg/kg/injection, schedule: Q04DX003 (ip), vehicle: saline sonified 97 % of control | dose: 200.0 mg/kg/injection, schedule: Q04DX003 (ip), vehicle: saline sonified 94 % of control | [13] 89 % of control | dose: 400.0 mg/kg/injection, schedule: Q04DX003 (ip), vehicle: saline sonified 103 % of control

O=C1CC(=P(c2ccccc2)(c2ccccc2)c2ccccc2)C(=O)N1c1cccc2ccc(O)cc12
inactive: dose: 75.0 mg/kg/injection, schedule: Q01DX001 (ip), vehicle: saline 101 % of control | dose: 150.0 mg/kg/injection, schedule: Q01DX001 (ip), vehicle: saline 96 % of control | dose: 300.0 mg/kg/injection, schedule: Q01DX001 (ip), vehicle: saline 95 % of control

O=C1C(C(Cl)c2ccccc2)SC(c2ccccc2)N1c1ccccc1 (stereo not given)
inactive: [4] 95 % of control | [1] 102 % of control | [5] 95 % of control | [2] 89 % of control | [8] 95 % of control | [3] 96 % of control

Cc1ccc2[nH]c(=O)cc(C)c2c1
inactive: [14] 102 % of control | [10] 95 % of control | [11] 98 % of control | dose: 400.0 mg/kg/injection, schedule: Q04DX003 (ip), vehicle: saline with Tween-80 101 % of control

O=S(=O)(Nc1ccc2ccccc2c1)c1ccc2ccccc2c1
inactive: [1] 91 % of control | [2] 90 % of control | [3] 91 % of control

COc1cc(N)c2ncccc2c1
inactive: dose: 15.0 mg/kg/injection, schedule: Q01DX001 (ip), vehicle: saline 98 % of control | dose: 30.0 mg/kg/injection, schedule: Q01DX001 (ip), vehicle: saline 97 % of control | dose: 75.0 mg/kg/injection, schedule: Q01DX001 (ip), vehicle: carboxymethylcellulose (CMC) 96 % of control

O=C(O)c1ccc(CBr)cc1CBr
inactive: dose: 6.25 mg/kg/injection, schedule: Q01DX009 (ip), vehicle: saline with Tween-80 103 % of control | dose: 6.25 mg/kg/injection, schedule: Q04DX003 (ip), vehicle: saline with Tween-80 93 % of control | dose: 12.5 mg/kg/injection, schedule: Q01DX009 (ip), vehicle: saline with Tween-80 101 % of control | dose: 12.5 mg/kg/injection, schedule: Q04DX003 (ip), vehicle: saline with Tween-80 96 % of control | dose: 25.0 mg/kg/injection, schedule: Q01DX009 (ip), vehicle: saline with Tween-80 94 % of control | dose: 25.0 mg/kg/injection, schedule: Q04DX003 (ip), vehicle: saline with Tween-80 102 % of control
